Measured values: patent US10913738B2 (BRISTOL-MYERS SQUIBB COMPANY, priority 2017, dated 2021)
Where two headings read alike, the source gives them in different places.

Legend:
[1] = target: T1, His-GST-TVMV-hRIPK1(1-324) (Homo sapiens, UniProt Q13546); test: RIPK1 HTRF Binding Assay
T1 construct: The coding region of human RIPK1(1-324) flanked by NdeI site at 5′ end; made in house; host or cells: Spodoptera frugiperda (Sf9) insect cells, baculovirus
T1 sequence (Q13546 1-324): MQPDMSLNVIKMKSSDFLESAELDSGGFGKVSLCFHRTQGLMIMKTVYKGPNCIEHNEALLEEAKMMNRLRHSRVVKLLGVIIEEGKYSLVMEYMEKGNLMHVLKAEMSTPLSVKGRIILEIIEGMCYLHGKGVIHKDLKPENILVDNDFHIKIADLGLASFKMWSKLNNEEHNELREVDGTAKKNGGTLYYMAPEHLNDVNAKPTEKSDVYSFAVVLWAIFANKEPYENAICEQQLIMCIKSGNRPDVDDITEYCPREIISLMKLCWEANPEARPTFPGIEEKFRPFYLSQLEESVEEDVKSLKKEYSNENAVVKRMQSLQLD

[2] = tested on: MLKL phosphorylation in HT29-L23 human colorectal adenocarcinoma cells; test: MLKL Phosphorylation High-Content Assay; type: cell-based; details: Homo sapiens
Procedure, shortened: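 Cells incubated six hours at 37° C., then phospho-MLKL (S358) immunostained overnight at 4° C. and imaged by high-content microscopy. Phosphorylation quantified as mean circ-ring average intensity ratio; IC50 and Ymax from 4-parameter logistic fits.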

[3] = x marks IC50 class <20 nM, read-out: RIPK1 HTRF binding <20 nM
[4] = x marks IC50 class 20-200 nM, read-out: pMLKL cell activity 20-200 nM
[5] = x marks IC50 class >200 nM, read-out: RIPK1 HTRF binding >200 nM
[6] = x marks IC50 class >200 nM, read-out: pMLKL cell activity >200 nM
[7] = x marks IC50 class 20-200 nM, read-out: RIPK1 HTRF binding 20-200 nM
[8] = x marks IC50 class <20 nM, read-out: pMLKL cell activity <20 nM

Row | SMILES | IC50 [1, 3] [nM] | IC50 [2, 4] [nM] | further results
1 | CCOc1ncc(-c2ccn3nc(N)nc3c2)cc1C(=O)NCc1ccccc1OCC1CC1 [Example 272, 5-{2-amino-[1,2,4]triazolo[1,5-a]pyridin-7-yl}-N-{[2-(cyclopropylmethoxy)phenyl]methyl}-2-ethoxypyridine-3-carboxamide] | < 20 | 20 to 200 | –
2 | [2H]C([2H])([2H])Oc1ncc(-c2ccn3nc(N)nc3c2)cc1C(=O)NC(C)c1ccccc1OC(F)(F)F (single isomer, unassigned) [Example 95-1, 5-{2-amino-[1,2,4]triazolo[1,5-a]pyridin-7-yl}-2-(deutero)methoxy-N-{1-[2-(trifluoromethoxy)phenyl]ethyl}pyridine-3-carboxamide] | – | – | IC50 [1, 5]: > 200 nM; IC50 [2, 6]: > 200 nM
3 | COc1ncc(-c2ccn3nc(N)nc3c2)cc1C(=O)NCc1ccccc1OCC(F)(F)F [Example 343, 5-(2-amino-[1,2,4]triazolo[1,5-a]pyridin-7-yl)-2-methoxy-N-(2-(2,2,2-trifluoroethoxy)benzyl)nicotinamide] | < 20 | 20 to 200 | –
4 | COc1nc(C)c(-c2ccn3nc(N)nc3c2)cc1C(=O)NCc1ccccc1OCC1CCC(F)(F)CC1 [Example 11, 5-{2-Amino-[1,2,4]triazolo[1,5-a]pyridin-7-yl}-N-({2-[(4,4-difluorocyclohexyl)methoxy]phenyl}methyl)-2-methoxy-6-methylpyridine-3-carboxamide] | < 20 | – | IC50 [2, 6]: > 200 nM
5 | COc1ncc(-c2ccn3nc(N)nc3c2)cc1C(=O)NCc1cc(C(F)(F)F)ccc1Cl [Example 161, 5-{2-amino-[1,2,4]triazolo[1,5-a]pyridin-7-yl}-N-{[2-chloro-5-(trifluoromethyl)phenyl]methyl}-2-methoxypyridine-3-carboxamide] | < 20 | 20 to 200 | –
6 | C[C@@H](NC(=O)c1cc(-c2ccn3nc(N)nc3c2)cnc1Cl)c1cc(OC(F)(F)F)ccc1F [Example 324, (R)-5-(2-amino-[1,2,4]triazolo[1,5-a]pyridin-7-yl)-2-chloro-N-(1-(2-fluoro-5-(trifluoromethoxy)phenyl)ethyl)nicotinamide] | < 20 | 20 to 200 | –
7 | Nc1nc2cc(-c3cc(C(=O)NCc4cc(OC(F)(F)F)ccc4F)cnc3Cl)ccn2n1 [Example 368, 5-(2-Amino-[1,2,4]triazolo[1,5-a]pyridin-7-yl)-6-chloro-N-(2-fluoro-5-(trifluoromethoxy)benzyl)nicotinamide] | < 20 | 20 to 200 | –
8 | COc1ncc(-c2ccn3nc(N)nc3c2)cc1C(=O)Nc1cnn(C(c2ccccc2)c2ccccc2)c1 [Example 107, 5-{2-amino-[1,2,4]triazolo[1,5-a]pyridin-7-yl}-N-[1-(diphenylmethyl)-1H-pyrazol-4-yl]-2-methoxypyridine-3-carboxamide] | – | – | IC50 [1, 7]: 20 to 200 nM; IC50 [2, 6]: > 200 nM
9 | COc1nc(C)c(-c2ccn3nc(N)nc3c2)cc1C(=O)NCc1cc(C(F)(F)F)ccc1F [Example 197, 5-{2-amino-[1,2,4]triazolo[1,5-a]pyridin-7-yl}-N-{[2-fluoro-5-(trifluoromethyl)phenyl]methyl}-2-methoxy-6-methylpyridine-3-carboxamide] | < 20 | 20 to 200 | –
10 | CNc1ncc(-c2ccn3nc(N)nc3c2)cc1C(=O)NCc1ccccc1Sc1ccccc1CO [Example 57] | < 20 | 20 to 200 | –
11 | CCOc1ncc(-c2ccn3nc(N)nc3c2)cc1C(=O)NCc1ccccc1OCC1CCC1 [Example 268, 5-{2-amino-[1,2,4]triazolo[1,5-a]pyridin-7-yl}-N-{[2-(cyclobutylmethoxy)phenyl]methyl}-2-ethoxypyridine-3-carboxamide] | < 20 | 20 to 200 | –
12 | COc1nc(C)c(-c2ccn3nc(N)nc3c2)cc1C(=O)NCc1cccc(F)c1CN1CCOCC1 [Example 355, 5-(2-amino-[1,2,4]triazolo[1,5-a]pyridin-7-yl)-N-(3-fluoro-2-(morpholinomethyl)benzyl)-2-methoxy-6-methylnicotinamide] | < 20 | 20 to 200 | –
13 | COc1cnc(-c2ccn3nc(N)nc3c2)cc1C(=O)N[C@H](C)c1cc(OC(F)(F)F)ccc1F [Example 389, (R)-2-(2-amino-[1,2,4]triazolo[1,5-a]pyridin-7-yl)-N-(1-(2-fluoro-5-(trifluoromethoxy)phenyl)ethyl)-5-methoxyisonicotinamide] | – | – | IC50 [1, 7]: 20 to 200 nM; IC50 [2, 6]: > 200 nM
14 | COc1nc(C)c(-c2ccn3nc(N)nc3c2)cc1C(=O)NCc1cccc(F)c1CN1CCCC1 [Example 326, 5-(2-Amino-[1,2,4]triazolo[1,5-a]pyridin-7-yl)-N-(3-fluoro-2-(pyrrolidin-1-ylmethyl)benzyl)-2-methoxy-6-methylnicotinamide] | – | – | IC50 [1, 7]: 20 to 200 nM; IC50 [2, 6]: > 200 nM
15 | COc1nc(C)c(-c2ccn3nc(N)nc3c2)cc1C(=O)NCc1cc(F)ccc1OC1CCCC1 [Example 216, 5-{2-amino-[1,2,4]triazolo[1,5-a]pyridin-7-yl}-N-{[2-(cyclopentyloxy)-5-fluorophenyl]methyl}-2-methoxy-6-methylpyridine-3-carboxamide] | < 20 | – | IC50 [2, 8]: < 20 nM
16 | CNc1cn2nc(-c3cnc(OC)c(C(=O)N[C@@H](C)c4cc(OC(F)(F)F)ccc4F)c3)ccc2n1 [Example 374, (S)—N-(1-(2-fluoro-5-(trifluoromethoxy)phenyl)ethyl)-2-methoxy-5-(2-(methylamino)imidazo[1,2-b]pyridazin-6-yl)nicotinamide] | < 20 | 20 to 200 | –
17 | COc1ncc(-c2ccn3nc(N)nc3c2)cc1C(=O)NCc1ccccc1OC1CCC(C)C1 (stereo not shown) [Example 32, 5-{2-Amino-[1,2,4]triazolo[1,5-a]pyridin-7-yl}-2-methoxy-N-({2-[(3-methylcyclopentyl)oxy]phenyl}methyl)pyridine-3-carboxamide] | < 20 | – | IC50 [2, 8]: < 20 nM
18 | Cc1cnc(-c2ccn3nc(N)nc3c2)cc1C(=O)NCc1cc(OC(F)(F)F)ccc1F [Example 394, 2-(2-amino-[1,2,4]triazolo[1,5-a]pyridin-7-yl)-N-(2-fluoro-5-(trifluoromethoxy)benzyl)-5-methylisonicotinamide] | < 20 | 20 to 200 | –
19 | Nc1nc2cc(-c3cnc(N)c(C(=O)NCc4ccccc4OCC4CCC4)c3)ccn2n1 [Example 49, 2-Amino-5-{2-amino-[1,2,4]triazolo[1,5-a]pyridin-7-yl}-N-{[2-(cyclobutylmethoxy)phenyl]methyl}pyridine-3-carboxamide] | < 20 | 20 to 200 | –
20 | COc1ncc(-c2ccn3nc(N)nc3c2)cc1C(=O)N1CCCC(C(O)c2ccc(F)cc2)C1 (mixture of isomers) [Example 422, (5-(2-amino-[1,2,4]triazolo[1,5-a]pyridin-7-yl)-2-methoxypyridin-3-yl)(3-((4-fluorophenyl)(hydroxy)methyl)piperidin-1-yl)methanone] | – | – | IC50 [1, 5]: > 200 nM; IC50 [2, 6]: > 200 nM
21 | [2H]C([2H])(NC(=O)c1cc(-c2ccn3nc(N)nc3c2)c(C)nc1C)c1cc(OC(F)(F)F)ccc1F [Example 191] | < 20 | – | IC50 [2, 8]: < 20 nM
22 | Cc1nc(C)c(-c2ccn3nc(N)nc3c2)cc1C(=O)NCc1c(F)cccc1OCC1CCCC1 [Example 180, 5-12-amino-[1,2,4]triazolo[1,5-a]pyridin-7-yl}-N-{[2-(cyclopentylmethoxy)-6-fluorophenyllmethyl}-2,6-dimethylpyridine-3-carboxamide] | < 20 | 20 to 200 | –
23 | [2H]C([2H])([2H])Oc1nc(C)c(-c2ccn3nc(N)nc3c2)cc1C(=O)NC(C)c1ccccc1OC(F)(F)F (single isomer, unassigned) [Example 98-2, 5-{2-amino-[1,2,4]triazolo[1,5-a]pyridin-7-yl}-2-(deutero)methoxy-6-methyl-N-{1-[2-(trifluoromethoxy)phenyl]ethyl}pyridine-3-carboxamide] | < 20 | – | IC50 [2, 8]: < 20 nM
24 | Nc1nc2cc(-c3cncc(C(=O)NCc4ccccc4Sc4ccccc4CO)c3)ccn2n1 [Example 59, 5-{2-Amino-[1,2,4]triazolo[1,5-a]pyridin-7-yl}-N-{[(2-[2-(hydroxymethyl)phenyl]sulfanyl}phenyl)methyl]pyridine-3-carboxamide] | < 20 | 20 to 200 | –
25 | Cc1nc(C)c(-c2ccn3nc(N)nc3c2)cc1C(=O)NCc1ncccc1OCC1CCCC1 [Example 182, 5-{2-amino-[1,2,4]triazolo[1,5-a]pyridin-7-yl}-N-{[3-(cyclopentylmethoxy)pyridin-2-yl]methyl}-2,6-dimethylpyridine-3-carboxamide] | < 20 | 20 to 200 | –
26 | COc1nc(C)c(-c2ccn3nc(N)nc3c2)cc1C(=O)NCc1cc(F)cc(F)c1OCC1CCCC1 [Example 208, 5-{2-amino-[1,2,4]triazolo[1,5-a]pyridin-7-yl}-N-{[2-(cyclopentylmethoxy)-3,5-difluorophenyl]methyl}-2-methoxy-6-methylpyridine-3-carboxamide] | < 20 | 20 to 200 | –
